For 13 compounds, Emax and DC50 results are on record in patent US20250320206A1, “STAT6 DEGRADERS” (Gilead Sciences, Inc., priority 2024, published 2025).

A word on the Emax: it is the size of the effect at its maximum, as opposed to the concentration needed. The DC50 is the midpoint of the concentration-degradation curve.

The target of one assay is T1, STAT6 (Homo sapiens, UniProt P42226).
T1 construct: These cells express endogenous STAT6; host or cells: HeLa LgBiT clone 4.14
T1 sequence (P42226 1-847): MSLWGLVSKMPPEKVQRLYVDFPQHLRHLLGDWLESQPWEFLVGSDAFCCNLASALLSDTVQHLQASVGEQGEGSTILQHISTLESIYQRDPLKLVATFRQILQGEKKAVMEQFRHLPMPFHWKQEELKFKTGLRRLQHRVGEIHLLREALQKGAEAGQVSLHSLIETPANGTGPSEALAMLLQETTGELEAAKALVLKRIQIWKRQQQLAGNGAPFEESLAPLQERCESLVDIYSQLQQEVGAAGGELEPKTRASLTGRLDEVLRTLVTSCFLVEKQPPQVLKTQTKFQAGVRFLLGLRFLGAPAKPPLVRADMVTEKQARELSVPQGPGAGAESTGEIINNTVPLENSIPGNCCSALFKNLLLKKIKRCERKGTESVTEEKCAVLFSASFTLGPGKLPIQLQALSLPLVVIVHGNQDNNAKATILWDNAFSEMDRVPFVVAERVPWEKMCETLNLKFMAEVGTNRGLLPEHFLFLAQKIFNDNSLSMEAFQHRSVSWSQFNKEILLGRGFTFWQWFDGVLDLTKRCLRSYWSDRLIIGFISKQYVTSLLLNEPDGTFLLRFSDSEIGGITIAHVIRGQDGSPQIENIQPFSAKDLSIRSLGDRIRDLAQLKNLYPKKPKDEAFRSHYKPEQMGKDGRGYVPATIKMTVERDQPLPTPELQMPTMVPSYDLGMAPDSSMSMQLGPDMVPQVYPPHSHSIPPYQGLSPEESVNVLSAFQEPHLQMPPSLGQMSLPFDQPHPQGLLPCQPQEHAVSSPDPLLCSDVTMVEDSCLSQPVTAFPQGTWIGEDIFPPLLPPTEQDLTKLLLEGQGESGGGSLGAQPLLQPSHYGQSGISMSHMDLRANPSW
Briefly: Stat6 Degrader Assay (HiBiT based, HeLa LgBiT clone 4.14). Type of assay: cell-based. The note with it: HeLa LgBiT clone 4.14 HiBiT-STAT6, 4-24 h incubation; read-out: STAT6 degradation Emax. On the procedure: This was a HiBit based assay. A HeLa cell line stably transfected with a small protein, LgBit (Large Bit) was obtained from Promega. These cells express endogenous STAT6. A small 11 amino acid gene sequence (HiBiT) was inserted in the STAT6 gene using CRISPR technology. Once STAT6 protein is expressed in the cells, the HiBiT sequence will bind the LgBit in the cells resulting in a functional NanoBiT protein, giving a luminescent tag to STAT6, see FIG. 2.
Single cell clones were prepared and the clone 4.14 was selected for the assay based on that clone showing high luminescence, high STAT6 phosphorylation upon stimulation with IL-4, and inhibition of luminescence when cells were treated with STAT6 siRNA.
HeLa LgBiT clone 4.14 cells were suspended in DMEM with 10% FCS, 1% Pen/Strep, Na-pyrovate and Hygromycin B, at a concentration of 1.25*105 cells pr mL. 5000 cells were added pr well of a 384 well plate and 20 nL of compound was added by Echo® liquid handler. NN6394A (terfenadine, a toxic compound) was added to control wells at 50 μM concentration to establish the assay window. In these wells the cells are dead which equals 100% degradation of STAT6.
After 4-24 h of incubation at 37° C. under 5% CO2/95% air, 5 μL substrate (Nano-GLO®) was added to the wells and the plates were centrifuged and incubated for 0.5 h.
The luminescence in the wells as a measure of non-degraded STAT6 was measured in a plate reader (BMG Pherastar FSX).
The dose-response curves for Examples 3u208, 3u246, 3u118, 3u119, 3u120, and 3u74 are shown in FIG. 1 (where percent degradation is plotted vs. test compound concentration in M on a log-scale).
(HiBiT is a short tag that completes a luciferase, so light tracks the accessible tagged protein.)
Regarding `CNc1ccn(-c2ccnc3c2cc(CN2CCC(c4c(F)cc(C(=O)N5CCC(CN6CCN(c7ccc8c(c7)C7(CC7)C(=O)N8[C@H]7CCC(=O)NC7=O)CC6)CC5)cc4F)CC2)n3C)c(=O)c1` (single isomer, unassigned) [Example 3u151], the Emax is 30 to 40%.

The same assay, now with this note: HeLa LgBiT clone 4.14 HiBiT-STAT6, 4-24 h incubation; values given for compounds with >80% Emax; geometric mean; read-out: STAT6 degradation DC50.
For `Cc1cc(C(=O)N2CCC(CN3CCN(Cc4cc5c(cc4F)n([C@H]4CCC(=O)NC4=O)c(=O)n5C4CC4)C[C@@H]3C)CC2)cc(F)c1C1=CCN([C@@H](C)c2cc3c(-n4ccc5c(c4=O)CCN5)ccnc3n2C)CC1` (single isomer, unassigned) [Example 3u132], the DC50 is 0.5 nM.

Take `Cc1cc(C(=O)N2CCC(CN3CCN(Cc4cc5c(cc4F)n([C@@H]4CCC(=O)NC4=O)c(=O)n5C4CC4)C[C@@H]3C)CC2)cc(F)c1C1=CCN([C@@H](C)c2cc3c(-n4ccc5c(c4=O)CCN5)ccnc3n2C)CC1` (single isomer, unassigned) [Example 3u133]: the DC50 was found to be 0.8 nM.

As to `Cc1cc(C(=O)N2CCC(CN3CCN(Cc4ccc5c(c4)n(C)c(=O)n5[C@@H]4CCC(=O)NC4=O)C[C@@H]3C)CC2)cc(F)c1C1=CCN([C@@H](C)c2cc3c(-n4ccc5c(c4=O)CCN5)ccnc3n2C)CC1` (single isomer, unassigned) [Example 3u139], the 50% degradation concentration (DC50) was 0.2 nM.

Regarding `Cc1cc(C(=O)N2CCC(CN3CCN(Cc4ccc5c(c4)n(C4CC4)c(=O)n5[C@H]4CCC(=O)NC4=O)CC3)CC2)cc(F)c1C1=CCN([C@@H](C)c2cc3c(-n4ccc5c(c4=O)CCN5)ccnc3n2C)CC1` (single isomer, unassigned) [Example 3u142], the half-maximal degradation concentration (DC50) is 2.4 nM.

As for `Cc1cc(C(=O)N2CCC(CN3CCN(Cc4ccc5c(c4)n(C4CC4)c(=O)n5[C@@H]4CCC(=O)NC4=O)C[C@@H]3C)CC2)cc(F)c1C1=CCN([C@@H](C)c2cc3c(-n4ccc5c(c4=O)CCN5)ccnc3n2C)CC1` (single isomer, unassigned) [Example 3u144], the DC50 came out at 0.4 nM.

As to `Cc1cc(C(=O)N2CCC(CN3CCN(Cc4ccc5c(c4)n(C4CC4)c(=O)n5[C@H]4CCC(=O)NC4=O)C[C@@H]3C)CC2)cc(F)c1C1=CCN([C@@H](C)c2cc3c(-n4ccc5c(c4=O)CCN5)ccnc3n2C)CC1` (single isomer, unassigned) [Example 3u145], the DC50 is 2 nM.

`Cc1cc(C(=O)N2CCC(CN3CCN(Cc4cc5c(cc4F)n([C@H]4CCC(=O)NC4=O)c(=O)n5C4CC4)CC3)CC2)cc(F)c1C1=CCN([C@@H](C)c2cc3c(-n4ccc5c(c4=O)CCN5)ccnc3n2C)CC1` (single isomer, unassigned) [Example 3u147]: the DC50 stood at 1.6 nM.

On to `Cc1cc(C(=O)N2CCC(CN3CCN(Cc4cc5c(cc4F)n([C@@H]4CCC(=O)NC4=O)c(=O)n5C4CC4)CC3)CC2)cc(F)c1C1=CCN([C@@H](C)c2cc3c(-n4ccc5c(c4=O)CCN5)ccnc3n2C)CC1` (single isomer, unassigned) [Example 3u148], for which the half-maximal degradation concentration (DC50) was found to be 2.7 nM.

For the compound `CNc1ccn(-c2ccnc3c2cc([C@H](C)N2CC=C(c4c(C)cc(C(=O)N5CCC(CN6CCN(Cc7ccc8c(c7)n(C)c(=O)n8[C@H]7CCC(=O)NC7=O)CC6)CC5)cc4F)CC2)n3C)c(=O)c1` (single isomer, unassigned) [Example 3u156], the half-maximal degradation concentration (DC50) was 0.6 nM.

As to `CNc1ccn(-c2cccc3c2cc([C@H](C)N2CC=C(c4c(C)cc(C(=O)N5CCC(CN6CCN(Cc7cc8c(cc7F)n([C@H]7CCC(=O)NC7=O)c(=O)n8C7CC7)C[C@@H]6C)CC5)cc4F)CC2)n3C)c(=O)c1` (single isomer, unassigned) [Example 3u167], the half-maximal degradation concentration (DC50) was determined as 0.8 nM.

For the compound `CNc1ccn(-c2ccnc3c2cc([C@H](C)N2CC=C(c4c(C)cc(C(=O)N5CCC(CN6CCN(Cc7cc8c(cc7F)n([C@@H]7CCC(=O)NC7=O)c(=O)n8C7CC7)C[C@@H]6C)CC5)cc4F)CC2)n3C)c(=O)c1` (single isomer, unassigned) [Example 3u168], the DC50 came out at 2.1 nM.

Take `CNc1cc(=O)n(-c2ccnc3c2cc([C@H](C)N2CC=C(c4c(C)cc(C(=O)N(C)c5ccc(C6CCN(Cc7ccc8c(c7)C(C)(C)C(=O)N8[C@H]7CCC(=O)NC7=O)CC6)cc5)cc4F)CC2)n3C)cc1F` (single isomer, unassigned) [Example 3u234]: the 50% degradation concentration (DC50) is 0.1 nM.
